Reference: ChEMBL document CHEMBL1201862, “PubChem BioAssay data set” (2004)
The source made the active and inactive calls. Unless noted, no cut-off for these calls is given here.

What was measured:
Kallikrein-7 = Kallikrein-7 (Homo sapiens, UniProt P49862); assay: Fluorescence Intensity-based biochemical primary high throughput dose response assay to identify activators of kallikrein-7 (K7) zymogen.
[1] = BHK-21 cell cytotoxicity, cytotoxicity control for flavivirus guanylyltransferase probe project, secondary screen (AID 624078); type: functional
Protein Wnt-3a = Protein Wnt-3a (Mus musculus, UniProt P27467); assay: SAR analysis of small molecule antagonists of Gli-SUFU in a Wnt3a luminescent reporter assay.; type: functional
[2] = HEK293T cytotoxicity, dose response, cytotoxicity control for miR-122 modulator project, cell-based, inhibitor set, cherry-pick, set 2 (AID 720697); type: functional
[3] = HEK293T cytotoxicity, dose response, cytotoxicity control for miR-122 modulator project, cell-based, activator set, cherry-pick (AID 720690); type: functional;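 note: HEK293T human cells scored for general mammalian cytotoxicity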
[4] = PAX2 cell-based inhibition, dose response, selectivity assay for PAX8 inhibitor project, plate reader, dry powder samples (AID 743048); type: functional;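 note: HEK293 cells carrying a WT1 promoter luciferase reporter driven by expressed Pax2; potency is for inhibition of Pax2 driven reporter signal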
[5] = cytotoxicity in COV434 cells, dose response, cytotoxicity control for PAX8 inhibitor project, cell-based, plate reader, dry powder, SA7 (AID 743145); type: functional
[6] = cytotoxicity dependent on PAX8, dose response, cell-based, plate reader, dry powder (AID 743049); type: functional
[7] = inhibitors of non-replicating M. tuberculosis, dose response, luciferase, dry powder (AID 651619); type: functional; settings: Mycobacterium tuberculosis
[8] = inhibitors of non-replicating M. tuberculosis, dose response, luciferase, dry powder (AID 651620); type: functional; settings: Mycobacterium tuberculosis
[9] = cytotoxicity in A549 cells, dose response, cytotoxicity control, cell-based, cherry-picked samples (AID 1053184); type: functional
[10] = biological target: Kappa-type opioid receptor (Homo sapiens, UniProt P41145); assay: Late-stage fluorescence-based cell-based dose response assay for antagonists of kappa opioid receptor 1 (OPRK1).; type: functional
Mu-type opioid receptor = Mu-type opioid receptor (Homo sapiens, UniProt P35372); assay: Late-stage results from the probe development effort to identify antagonists of OPRK1: luminescence-based cell-based dose response OPRM1 counterscreen, Set 2.; type: functional
[11] = biological target: Delta-type opioid receptor (Homo sapiens, UniProt P41143); assay: Late-stage results from the probe development effort to identify antagonists of OPRK1: fluorescence-based cell-based dose response OPRD1 counterscreen, Set 2.; type: functional
[12] = biological target: Sphingosine 1-phosphate receptor 1 (Homo sapiens, UniProt P21453); assay: Late-stage counterscreen for antagonists of kappa opioid receptor 1 (OPRK1): fluorescence-based cell-based dose response assay to identify antagonists of Sphingosine 1-Phosphate Receptor 1 (S1P1).; type: functional
Chain of Sphingosine 1-phosphate receptor 1 (P21453 whole entry): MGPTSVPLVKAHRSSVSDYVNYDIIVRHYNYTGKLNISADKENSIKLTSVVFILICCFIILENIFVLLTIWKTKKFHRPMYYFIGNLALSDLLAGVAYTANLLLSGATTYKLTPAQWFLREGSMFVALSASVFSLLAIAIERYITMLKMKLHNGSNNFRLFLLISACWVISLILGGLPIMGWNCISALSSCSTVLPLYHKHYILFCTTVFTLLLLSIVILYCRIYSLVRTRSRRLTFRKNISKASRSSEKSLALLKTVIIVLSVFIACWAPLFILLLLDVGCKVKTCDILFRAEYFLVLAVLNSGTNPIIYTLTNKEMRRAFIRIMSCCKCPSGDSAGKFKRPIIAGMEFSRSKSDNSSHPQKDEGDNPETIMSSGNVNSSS

Chain of Delta-type opioid receptor (P41143 whole entry): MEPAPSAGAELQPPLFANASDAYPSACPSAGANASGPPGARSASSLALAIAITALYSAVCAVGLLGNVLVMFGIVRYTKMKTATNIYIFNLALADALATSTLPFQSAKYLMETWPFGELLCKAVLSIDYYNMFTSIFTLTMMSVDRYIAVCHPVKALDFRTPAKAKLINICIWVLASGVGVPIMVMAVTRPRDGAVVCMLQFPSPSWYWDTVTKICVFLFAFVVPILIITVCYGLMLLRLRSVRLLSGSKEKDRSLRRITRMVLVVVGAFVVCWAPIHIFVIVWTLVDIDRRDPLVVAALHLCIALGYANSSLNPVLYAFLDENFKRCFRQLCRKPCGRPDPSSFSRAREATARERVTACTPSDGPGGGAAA
Chain of Kappa-type opioid receptor (P41145 whole entry): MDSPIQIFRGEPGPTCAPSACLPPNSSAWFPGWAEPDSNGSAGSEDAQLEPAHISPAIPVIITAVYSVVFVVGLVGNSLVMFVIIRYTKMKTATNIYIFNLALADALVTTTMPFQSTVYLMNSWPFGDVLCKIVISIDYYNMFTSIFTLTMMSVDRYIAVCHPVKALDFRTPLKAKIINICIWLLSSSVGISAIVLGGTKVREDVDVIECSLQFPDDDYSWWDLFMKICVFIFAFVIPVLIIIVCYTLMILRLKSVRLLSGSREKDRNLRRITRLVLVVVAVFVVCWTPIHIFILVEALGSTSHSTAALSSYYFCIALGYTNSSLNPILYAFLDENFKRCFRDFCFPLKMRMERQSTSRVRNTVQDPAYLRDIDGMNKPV
Chain of Kallikrein-7 (P49862 whole entry): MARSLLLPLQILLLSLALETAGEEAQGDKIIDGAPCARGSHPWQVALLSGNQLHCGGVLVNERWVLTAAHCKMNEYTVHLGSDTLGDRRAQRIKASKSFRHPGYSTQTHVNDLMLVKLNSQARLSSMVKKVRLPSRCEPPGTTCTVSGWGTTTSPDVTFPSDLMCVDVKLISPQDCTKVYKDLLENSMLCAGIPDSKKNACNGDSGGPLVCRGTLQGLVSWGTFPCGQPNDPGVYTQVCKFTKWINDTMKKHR
Chain of Mu-type opioid receptor (P35372 whole entry): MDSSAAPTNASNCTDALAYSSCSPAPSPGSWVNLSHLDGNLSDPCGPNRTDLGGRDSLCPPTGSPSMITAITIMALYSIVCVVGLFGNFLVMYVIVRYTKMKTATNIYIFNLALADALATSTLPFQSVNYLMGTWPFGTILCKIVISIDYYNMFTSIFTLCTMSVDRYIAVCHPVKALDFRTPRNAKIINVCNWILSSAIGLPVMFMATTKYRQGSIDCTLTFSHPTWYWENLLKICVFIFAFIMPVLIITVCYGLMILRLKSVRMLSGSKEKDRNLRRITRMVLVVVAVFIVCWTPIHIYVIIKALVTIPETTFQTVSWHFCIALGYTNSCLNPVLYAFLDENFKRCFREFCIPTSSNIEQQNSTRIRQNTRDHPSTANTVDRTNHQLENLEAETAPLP
Chain of Protein Wnt-3a (P27467 whole entry): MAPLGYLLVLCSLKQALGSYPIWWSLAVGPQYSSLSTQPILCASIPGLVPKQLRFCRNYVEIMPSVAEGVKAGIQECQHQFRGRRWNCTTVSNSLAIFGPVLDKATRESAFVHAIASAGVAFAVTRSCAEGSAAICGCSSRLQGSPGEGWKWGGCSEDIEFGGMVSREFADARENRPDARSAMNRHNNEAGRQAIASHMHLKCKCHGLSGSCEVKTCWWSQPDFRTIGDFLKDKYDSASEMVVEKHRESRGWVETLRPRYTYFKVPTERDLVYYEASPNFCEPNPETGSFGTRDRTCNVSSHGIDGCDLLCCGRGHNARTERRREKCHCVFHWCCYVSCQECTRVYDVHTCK

C=C(C)Cn1c2ccc(NC(=O)NCc3ccccc3)cc2c(=O)n1C
EC50 (Kallikrein-7): > 69.5 µM (inactive)

Cc1ccc(S(=O)(=O)Nc2cc(Sc3nc(C)cc(C)n3)c(O)c3ccccc23)cc1
CC50 [1]: 20.9 µM (active)

O=C(Nc1cc(N2CCCC2)ncn1)c1ccccc1F
IC50 (Protein Wnt-3a): 0.696 µM (active)

C[C@@H]1CN([C@@H](C)CO)S(=O)(=O)c2ccc(-c3cncnc3)cc2O[C@@H]1CN(C)Cc1ccc(Oc2ccccc2)cc1
AC50 [2]: 22.7 µM (active) | AC50 [3]: 24.9 µM (active)

COCC(=O)N1[C@H](CO)[C@H](c2ccc(-c3cccnc3)cc2)[C@@H]1C#N
AC50 [4]: > 32 µM (inactive) | AC50 [5]: 0.00824 µM (active) | AC50 [6]: > 70 µM (inactive)

Fc1ccc(CSc2nnc(-c3ccc(Cl)cc3)o2)cc1
IC90 [7]: 2 µM (active) | IC90 [8]: 2 µM (active)

C[C@@H]1CN([C@@H](C)CO)C(=O)Cc2cc(NC(=O)C3CCCCC3)ccc2O[C@@H]1CN(C)Cc1ccc(Cl)c(Cl)c1
AC50 [9]: 37.8 µM (active)

Clc1ccc2c(Nc3ccc4c(c3)OCO4)ccnc2c1
IC50 [10]: 13.8 µM (inactive) | IC50 (Mu-type opioid receptor): > 50 µM (inactive) | IC50 [11]: > 50 µM (inactive) | IC50 [12]: > 50 µM (inactive)
